# Measured values taken from publication PMC4476799, “Englerin A Agonizes the TRPC4/C5 Cation Channels to Inhibit Tumor Cell Line Proliferation” (PLoS ONE, 2015).
# Where two headings read alike, the source gives them in different places.
# Test system: cancer cell lines from the cancer cell line encyclopedia (CCLE)
# Test: Cell line profiling (CLiP) proliferation experiment
# Assay type: cell-based
# Set-up: ACTIVITY_AREA: scale not given here; AMAX: unit not given here
# Settings: for IC50: read-out: Crossing Point; for EC50: read-out: Inflection Point
# Method: Compound profiling experiment and data analysis was performed as previously described. Data was imported and plotted using the Tibco Spotfire DXP application. Lines were categorized as sensitive, intermediate and refractory as follows: Amax<-40 & Inflection Point <2 ~ Sensitive, Amax>-20 & Inflection Point >10 ~ Refractory, all else were called Intermediate. Cancer Cell line HG-U133 Plus 2 data was processed and normalized as described. […] Five sets of refractory cell lines were generated from the pool of refractory cell lines trying to match the lineage composition of the set of sensitive cell lines. The limma package was used as previously described to perform the statistical comparison.
# [1] = CAS-1, central_nervous_system, astrocytoma_Grade_IV
# [2] = CCK-81, large_intestine, adenocarcinoma
# [3] = CCRF-CEM, haematopoietic_and_lymphoid_tissue, acute_lymphoblastic_T_cell_leukaemia
# [4] = CFPAC-1, pancreas, ductal_carcinoma
# [5] = CI-1, haematopoietic_and_lymphoid_tissue, B_cell_lymphoma_unspecified
# [6] = CMK, haematopoietic_and_lymphoid_tissue, acute_myeloid_leukaemia
# [7] = CMK-11-5, haematopoietic_and_lymphoid_tissue, acute_myeloid_leukaemia
# [8] = CML-T1, haematopoietic_and_lymphoid_tissue, blast_phase_chronic_myeloid_leukaemia
# [9] = COLO 205, large_intestine, adenocarcinoma
# [10] = COLO 668, lung, small_cell_carcinoma
# [11] = COLO 775, haematopoietic_and_lymphoid_tissue, chronic_myeloid_leukaemia
# [12] = COLO-320, large_intestine, adenocarcinoma
# [13] = COLO-680N, oesophagus, squamous_cell_carcinoma
# [14] = COR-L23, lung, large_cell_carcinoma
# [15] = COR-L47, lung, small_cell_carcinoma
# [16] = COR-L88, lung, small_cell_carcinoma
# [17] = COR-L279, lung, small_cell_carcinoma
# [18] = Calu-6, lung, undifferentiated_carcinoma
# [19] = Capan-1, pancreas, ductal_carcinoma
# [20] = DBTRG-05MG, central_nervous_system, astrocytoma_Grade_IV
# [21] = DK-MG, central_nervous_system, astrocytoma_Grade_IV
# [22] = DLD-1, large_intestine, adenocarcinoma
# [23] = DMS 114, lung, small_cell_carcinoma
# [24] = DMS 273, lung, small_cell_carcinoma
# [25] = Daoy, central_nervous_system, NS
# [26] = Detroit 562, upper_aerodigestive_tract, NS
# [27] = EFM-192A, cell line EFM-192A, breast
# [28] = HCC1500, cell line HCC1500, breast
smiles,measurement,setting,value
CC(C)[C@@]12C[C@@H](O)[C@@](C)(O1)[C@@H]1CC[C@@H](C)[C@H]1[C@@H]2OC(=O)/C=C/c1ccccc1 [Englerin B],effect on proliferation of cancer cell lines,524 cancer cell lines from the CCLE,no cancer cell lines have their growth potently inhibited
same,IC50,A4/Fuk cells,18.1 µM
same,EC50,A4/Fuk cells,18.1 µM
same,IC50,"ACC-MESO-1, ACC-MESO-1 cells",> 30 µM
same,IC50,"ACC-MESO-1, cell line ACC-MESO-1, pleura, NS",> 30 µM
same,IC50,BDCM cells,16.9 µM
same,EC50,BDCM cells,16.9 µM
same,EC50,BHY cells,9.33 µM
same,IC50,BICR 6 cells,23 µM
same,EC50,BICR 6 cells,23 µM
same,EC50,BICR 22 cells,15 µM
same,IC50,"CAL-78, bone, dedifferentiated",> 30 µM
same,IC50,CAL-78 cells,> 30 µM
same,ACTIVITY_AREA,"CAMA-1, breast, NS",21.9
same,AMAX,"CAMA-1, breast, NS",-43.81
same,RESPONSE,"CAMA-1, breast, NS",INTERMEDIATE
same,ACTIVITY_AREA,[1],8.27
same,AMAX,[1],-27.8
same,RESPONSE,[1],INTERMEDIATE
same,IC50,[1],> 30 µM
same,IC50,CAS-1 cells,> 30 µM
same,ACTIVITY_AREA,[2],19.43
same,AMAX,[2],-61.47
same,RESPONSE,[2],INTERMEDIATE
same,IC50,[2],24.9 µM
same,EC50,[2],24.9 µM
same,IC50,CCK-81 cells,24.9 µM
same,EC50,CCK-81 cells,24.9 µM
same,ACTIVITY_AREA,[3],12.38
same,AMAX,[3],-48.26
same,RESPONSE,[3],INTERMEDIATE
same,ACTIVITY_AREA,[4],25.86
same,AMAX,[4],-50.08
same,RESPONSE,[4],INTERMEDIATE
same,ACTIVITY_AREA,"CHL-1, skin, NS",19.98
same,AMAX,"CHL-1, skin, NS",-60.11
same,RESPONSE,"CHL-1, skin, NS",INTERMEDIATE
same,ACTIVITY_AREA,"CHP-212, autonomic_ganglia, NS",33.44
same,AMAX,"CHP-212, autonomic_ganglia, NS",-55.99
same,RESPONSE,"CHP-212, autonomic_ganglia, NS",INTERMEDIATE
same,ACTIVITY_AREA,[5],19.7
same,AMAX,[5],16.67
same,RESPONSE,[5],REFRACTORY
same,IC50,[5],> 30 µM
same,ACTIVITY_AREA,[6],61.63
same,AMAX,[6],-8.06
same,RESPONSE,[6],REFRACTORY
same,IC50,[6],> 30 µM
same,IC50,"CMK-11-5, CMK-11-5, haematopoietic_and_lymphoid_tissue, acute_myeloid_leukaemia",24.1 µM
same,ACTIVITY_AREA,[7],101.26
same,AMAX,[7],-51.95
same,RESPONSE,[7],INTERMEDIATE
same,IC50,"CML-T1, CML-T1, haematopoietic_and_lymphoid_tissue, blast_phase_chronic_myeloid_leukaemia",17.9 µM
same,ACTIVITY_AREA,[8],42.33
same,AMAX,[8],-73.13
same,RESPONSE,[8],INTERMEDIATE
same,ACTIVITY_AREA,[9],33.02
same,AMAX,[9],-61.38
same,RESPONSE,[9],INTERMEDIATE
same,ACTIVITY_AREA,[10],28.83
same,AMAX,[10],-55.03
same,RESPONSE,[10],INTERMEDIATE
same,IC50,"COLO 699, COLO-699, lung, adenocarcinoma",3.62 µM
same,IC50,"COLO 704, COLO-704, ovary, NS",6.82 µM
same,ACTIVITY_AREA,"COLO 741, skin, NS",12.88
same,AMAX,"COLO 741, skin, NS",-37.55
same,RESPONSE,"COLO 741, skin, NS",INTERMEDIATE
same,ACTIVITY_AREA,[11],59.22
same,AMAX,[11],-93.44
same,RESPONSE,[11],INTERMEDIATE
same,IC50,[11],9.44 µM
same,EC50,[11],9.31 µM
same,ACTIVITY_AREA,"COLO 792, skin, NS",11.82
same,AMAX,"COLO 792, skin, NS",-22.14
same,RESPONSE,"COLO 792, skin, NS",INTERMEDIATE
same,IC50,"COLO 792, skin, NS",> 30 µM
same,EC50,"COLO 792, skin, NS",16 µM
same,IC50,COLO 792 cells,> 30 µM
same,EC50,COLO 792 cells,16 µM
same,ACTIVITY_AREA,"COLO 829, skin, NS",31.7
same,AMAX,"COLO 829, skin, NS",-7.17
same,RESPONSE,"COLO 829, skin, NS",REFRACTORY
same,ACTIVITY_AREA,[12],102.29
same,AMAX,[12],-70.01
same,RESPONSE,[12],INTERMEDIATE
same,ACTIVITY_AREA,[13],26.11
same,AMAX,[13],-34.59
same,RESPONSE,[13],INTERMEDIATE
same,ACTIVITY_AREA,"COLO-699, lung, adenocarcinoma",153.56
same,AMAX,"COLO-699, lung, adenocarcinoma",-71.88
same,RESPONSE,"COLO-699, lung, adenocarcinoma",INTERMEDIATE
same,ACTIVITY_AREA,"COLO-704, ovary, NS",138.81
same,AMAX,"COLO-704, ovary, NS",-63.22
same,RESPONSE,"COLO-704, ovary, NS",INTERMEDIATE
same,ACTIVITY_AREA,"COLO-800, skin, NS",66.95
same,AMAX,"COLO-800, skin, NS",-43.63
same,RESPONSE,"COLO-800, skin, NS",INTERMEDIATE
same,ACTIVITY_AREA,[14],32.4
same,AMAX,[14],-39.64
same,RESPONSE,[14],INTERMEDIATE
same,ACTIVITY_AREA,[15],92.1
same,AMAX,[15],-15.76
same,RESPONSE,[15],REFRACTORY
same,ACTIVITY_AREA,[16],20.83
same,AMAX,[16],-31.56
same,RESPONSE,[16],INTERMEDIATE
same,ACTIVITY_AREA,[17],130.29
same,AMAX,[17],-86.84
same,RESPONSE,[17],INTERMEDIATE
same,IC50,"COV318, COV318, ovary, NS",25.6 µM
same,EC50,"COV318, COV318, ovary, NS",25.6 µM
same,ACTIVITY_AREA,"COV318, ovary, NS",39.59
same,AMAX,"COV318, ovary, NS",-54.13
same,RESPONSE,"COV318, ovary, NS",INTERMEDIATE
same,IC50,"COV504, COV504, ovary, NS",> 30 µM
same,IC50,"COV504, cell line COV504 (ovary, NS)",> 30 µM
same,ACTIVITY_AREA,"COV504, ovary, NS",33.53
same,AMAX,"COV504, ovary, NS",-45.79
same,RESPONSE,"COV504, ovary, NS",INTERMEDIATE
same,ACTIVITY_AREA,"COV644, ovary, NS",35.24
same,AMAX,"COV644, ovary, NS",-28.86
same,RESPONSE,"COV644, ovary, NS",INTERMEDIATE
same,IC50,"COV644, ovary, NS",> 30 µM
same,EC50,"COV644, ovary, NS",3.05 µM
same,IC50,COV644 cells,> 30 µM
same,EC50,COV644 cells,3.05 µM
same,ACTIVITY_AREA,"Calu-3, lung, adenocarcinoma",19.78
same,AMAX,"Calu-3, lung, adenocarcinoma",4.65
same,RESPONSE,"Calu-3, lung, adenocarcinoma",REFRACTORY
same,ACTIVITY_AREA,[18],28.42
same,AMAX,[18],-47.13
same,RESPONSE,[18],INTERMEDIATE
same,ACTIVITY_AREA,"Caov-3, ovary, adenocarcinoma",128.76
same,AMAX,"Caov-3, ovary, adenocarcinoma",-55.06
same,RESPONSE,"Caov-3, ovary, adenocarcinoma",INTERMEDIATE
same,ACTIVITY_AREA,[19],29.63
same,AMAX,[19],-25.75
same,RESPONSE,[19],INTERMEDIATE
same,IC50,"Ci-1, CI-1 cells",> 30 µM
same,IC50,DAN-G cells,29.3 µM
same,EC50,DAN-G cells,29.3 µM
same,ACTIVITY_AREA,"DAN-G, pancreas, NS",26.93
same,AMAX,"DAN-G, pancreas, NS",-50.77
same,RESPONSE,"DAN-G, pancreas, NS",INTERMEDIATE
same,IC50,"DAN-G, pancreas, NS",29.3 µM
same,EC50,"DAN-G, pancreas, NS",29.3 µM
same,ACTIVITY_AREA,[20],21.88
same,AMAX,[20],-30.64
same,RESPONSE,[20],INTERMEDIATE
same,ACTIVITY_AREA,[21],33.27
same,AMAX,[21],-67.8
same,RESPONSE,[21],INTERMEDIATE
same,IC50,[21],16.1 µM
same,EC50,[21],12.5 µM
same,ACTIVITY_AREA,[22],71.46
same,AMAX,[22],-59.67
same,RESPONSE,[22],INTERMEDIATE
same,ACTIVITY_AREA,[23],21.61
same,AMAX,[23],-57.16
same,RESPONSE,[23],INTERMEDIATE
same,ACTIVITY_AREA,[24],29.68
same,AMAX,[24],-73.92
same,RESPONSE,[24],INTERMEDIATE
same,ACTIVITY_AREA,[25],43
same,AMAX,[25],-39.21
same,RESPONSE,[25],INTERMEDIATE
same,ACTIVITY_AREA,[26],35.45
same,AMAX,[26],-46.18
same,RESPONSE,[26],INTERMEDIATE
same,IC50,[27],22.9 µM
same,EC50,[27],22.9 µM
same,EC50,"EFM-192A, cell line EFM-192A",22.9 µM
same,IC50,"GP2d, cell line GP2d, large_intestine",> 30 µM
same,IC50,"GP2d, cell line GP2d",> 30 µM
same,IC50,"HCC15, cell line HCC-15, lung",15.5 µM
same,IC50,"HCC366, cell line HCC-366, lung",> 30 µM
same,IC50,"HCC366, cell line HCC-366",> 30 µM
same,IC50,"HCC1171, cell line HCC-1171, lung",26.9 µM
same,IC50,[28],> 30 µM
same,EC50,[28],8.24 µM
same,IC50,"HCC1500, cell line HCC1500",> 30 µM
same,IC50,"HEC-6, cell line HEC-6, endometrium",> 30 µM
same,IC50,"HEC-6, cell line HEC-6",> 30 µM
same,IC50,"HEC-50B, cell line HEC-50B, endometrium",> 30 µM
